system: TLR2 induced IL-6 in peripheral blood mononuclear cells (PBMCs); test: PBMC TLR2 Induced IL-6 Assay; assay type: cell-based, human; details: Homo sapiens, PBMC, 5 h, human PBMCs, 10 μg/ml lipoteichoic acid for 5 hours, IL-6 by ELISA; EC50 determinations are indicated with an asterisk; read-out: Cell EC50 (asterisk)
Method: Peripheral blood mononuclear cells (PBMCs) were isolated from human blood containing the anti-coagulant EDTA (2.5 mM) by centrifugation over a FICOLL® gradient. PBMCs (250000 cells/well) were cultured in assay media (RPMI with 10% heat inactivated FCS) with compounds for 30 minutes at 37° C. in a 5% CO2 incubator. Following pretreatment with compounds, cells were stimulated for 5 hours with 10 μg/ml lipoteichoic acid (Invivogen, San Diego, Calif.), a TLR2 agonist. At the end of the culture, plates were centrifuged at 1800 rpm for 10 minutes to pellet the cells. Supernatants were harvested and analyzed for IL-6 levels by ELISA (BD Biosciences, San Jose, Calif.). Inhibition was calculated as either an IC50 or EC50. EC50 determinations are indicated with an asterisk.

Structure (SMILES) | EC50 [nM]
CC(C)(O)[C@H](F)CNC(=O)c1cnc(Nc2nc3ccnn3cc2F)cc1N[C@H]1CCC[C@H]1F [Example 488] | 192
CC(C)Nc1cc(Nc2nc3cccnc3cc2F)ncc1C(=O)NC[C@@H](F)C(C)(C)O [Example 499] | 72

same assay, conditions: Homo sapiens, PBMC, 5 h, human PBMCs, 10 μg/ml lipoteichoic acid for 5 hours, IL-6 by ELISA; value without asterisk; read-out: Cell IC50

Structure (SMILES) | IC50 [nM]
CC(C)(O)[C@H](F)CNC(=O)c1cnc(Nc2ccc3ncsc3c2)cc1NCC1CC1 [Example 62] | 288
CC(C)(O)[C@H](F)CNC(=O)c1cnc(Nc2ccc3ncncc3c2)cc1NC1CCCC1F (stereo partly drawn) [Example 345] | 246
CC(C)Nc1cc(Nc2ccc3ncsc3c2)ncc1C(=O)NC[C@@H](F)C(O)(C1CC1)C(F)(F)F (stereo partly drawn) [Example 30] | 228
CC(C)CCNc1cc(Nc2ccc3ncsc3c2)ncc1C(=O)NC[C@@H](F)C(C)(C)O [Example 163] | 230
CC(C)Nc1cc(Nc2ccc3ncsc3c2)ncc1C(=O)NCC[C@@H](C)NC(=O)N1CCOCC1 [Example 182] | 508
CC(C)(O)[C@H](F)CNC(=O)c1cnc(Nc2ccc3ncsc3c2)cc1N[C@@H](c1cc(Cl)cc(Cl)c1)[C@H](O)CO [Example 77] | 377
CC(C)(O)[C@H](F)CNC(=O)c1cnc(Nc2ccc3ncncc3c2)cc1NC1CC1 [Example 81] | 100
Cc1cc2nc(Nc3cc(NC(C)C)c(C(=O)NC[C@@H](F)C(C)(C)O)cn3)ccn2n1 [Example 250] | 748
CC(C)(O)[C@H](F)CNC(=O)c1cnc(Nc2nc3ccnn3cc2F)cc1N[C@H]1CCC[C@@H]1O [Example 466] | 212
CC(C)(O)[C@H](F)CNC(=O)c1cnc(Nc2ccc3ncsc3c2)cc1NCC(F)(F)F [Example 84] | 501
CC(C)Nc1cc(Nc2ccc3ncccc3c2)ncc1C(=O)NC[C@@H](F)C(C)(C)O [Example 47] | 571
CN(C)C(=O)c1ccc(Nc2cc(Nc3ccc4ncsc4c3)ncc2C(=O)NC[C@@H](F)C(C)(C)O)cc1 [Example 323] | 207
CC(C)(O)[C@H](F)CNC(=O)c1cnc(Nc2ccc3ncsc3c2)cc1N[C@@H](c1cccc(F)c1)[C@H](O)CO [Example 44] | 699
CC(C)(O)[C@H](F)CNC(=O)c1cnc(Nc2ccc3ncsc3c2)cc1Nc1ccc(-c2cc[nH]n2)cc1 [Example 414] | 256
CC(C)Nc1cc(Nc2ccc3ncsc3c2)ncc1C(=O)N[C@H]1CCN(S(C)(=O)=O)C1 [Example 215] | 566
CC(C)(O)[C@H](F)CNC(=O)c1cnc(Nc2ccn3nccc3n2)cc1NC1CCC1 [Example 241] | 516
CCNc1cc(Nc2ccn3nccc3n2)ncc1C(=O)NC[C@@H](F)C(C)(C)O [Example 239] | 379
CC(C)(O)[C@H](F)CNC(=O)c1cnc(Nc2ccc3ncsc3c2)cc1NC1CCCC1O (stereo partly drawn) [Example 335] | 135

Structure (SMILES) | IC50 [nM]
CC(C)(O)[C@H](F)CNC(=O)c1cnc(Nc2ccc3nonc3c2)cc1NC1CC1 [Example 80] | 271
CC(C)(O)[C@H](F)CNC(=O)c1cnc(Nc2ccc3nonc3c2)cc1NC1CCOCC1 [Example 99] | 258
CC(C)Nc1cc(Nc2ncc3ncsc3c2F)ncc1C(=O)NC[C@@H](F)C(C)(C)O [Example 440] | 330
N#CCNC(=O)c1cnc(Nc2ccc3ncsc3c2)cc1NC1CCCC1 [Example 153] | 510
CC(C)Nc1cc(Nc2ccc3[nH]c(=O)oc3c2)ncc1C(=O)NC[C@@H](F)C(C)(C)O [Example 393] | 392
CC(C)(O)[C@H](F)CNC(=O)c1cnc(Nc2ccc3ncoc3c2)cc1N[C@@H]1CCC[C@H]1O [Example 336] | 466
O=C(NC[C@@H](F)CO)c1cnc(Nc2ccc3ncsc3c2)cc1NC1CC1 [Example 7] | 732
CC(C)(O)[C@H](F)CNC(=O)c1cnc(Nc2nc3ccnn3cc2F)cc1NC1CC1 [Example 269] | 445
CC(C)Nc1cc(Nc2ccc3nscc3c2)ncc1C(=O)NC[C@@H](F)C(C)(C)O [Example 56] | 330
CC(C)(O)[C@H](F)CNC(=O)c1cnc(Nc2ccc3[nH]c(=O)sc3c2)cc1NC1CCCC1 [Example 34] | 152
CC(C)(O)[C@H](F)CNC(=O)c1cnc(Nc2ccc3ncsc3c2)cc1NC1CCC1 [Example 46] | 183
CC(C)Nc1cc(Nc2ncc3ncccc3n2)ncc1C(=O)NC[C@@H](F)C(C)(C)O [Example 370] | 571
CC(C)(O)[C@H](F)CNC(=O)c1cnc(Nc2ccn3nccc3n2)cc1NCC(F)(F)F [Example 238] | 595
CC(C)CCNC(=O)c1cnc(Nc2ccc3ncsc3c2)cc1NC(C)C [Example 210] | 551
CC(C)(O)[C@H](F)CNC(=O)c1cnc(Nc2ccc3ccncc3c2)cc1NC1CC1 [Example 132] | 350
CC(C)Nc1cc(Nc2nc3ccnn3cc2F)ncc1C(=O)NCC(F)(F)C(C)(C)O [Example 522] | 795
O=C(NC[C@@H](F)CO)c1cnc(Nc2ccc3[nH]c(=O)sc3c2)cc1NC1CCCC1 [Example 6] | 231
CC(C)(O)CCNC(=O)c1cnc(Nc2ccc3ncsc3c2)cc1N[C@H]1CC[C@@H](F)CC1 [Example 174] | 150

same assay, conditions: Homo sapiens, PBMC, 5 h, read-out: Cell IC50

Structure (SMILES) | IC50 [nM]
CNC(=O)c1cnc(Nc2ccc3ncsc3c2)cc1N[C@@H](c1ccccc1)[C@H](O)CO [Example 143] | 295
CNC(=O)c1cnc(Nc2ccc3ncsc3c2)cc1N[C@H](CO)c1ccccc1 [Example 145] | 260

same assay, conditions: human PBMCs, 10 μg/ml lipoteichoic acid for 5 hours, IL-6 by ELISA; value without asterisk; read-out: Cell IC50

Structure (SMILES) | IC50 [nM]
CC(O)([C@H](F)CNC(=O)c1cnc(Nc2ccc3ncsc3c2)cc1NC1CCCC1F)C(F)(F)F (stereo in doubt) [Example 340] | 419
CC(C)Nc1cc(Nc2ccc3ncsc3c2)ncc1C(=O)NC[C@@H](F)C(O)(C1CC1)C(F)(F)F (stereo partly drawn) [Example 31] | 249
CC(C)(O)[C@H](F)CNC(=O)c1cnc(Nc2ccn3nccc3n2)cc1NC1CCOCC1F (stereo partly drawn) [Example 270] | 265
CC(C)(O)[C@H](F)CNC(=O)c1cnc(Nc2ccc3ncsc3c2)cc1NCC1CCCC1O (stereo partly drawn) [Example 113] | 803
CC(C)Nc1cc(Nc2ccc3nsnc3c2)ncc1C(=O)NC[C@@H](F)C(O)C(C)C (stereo partly drawn) [Example 23] | 165
CC(C)(O)[C@H](F)CNC(=O)c1cnc(Nc2ccc3ncccc3n2)cc1NC1CCCOC1 (stereo partly drawn) [Example 432] | 503
CC(C)(O)[C@H](F)CNC(=O)c1cnc(Nc2nc3ccnn3cc2F)cc1NC1CCCC1F (stereo partly drawn) [Example 472] | 1360
CC(C)(O)[C@H](F)CNC(=O)c1cnc(Nc2ccc3ncsc3c2)cc1NCC1CCCC1F (stereo partly drawn) [Example 116] | 296
CC(C)(O)[C@H](F)CNC(=O)c1cnc(Nc2ccn3nccc3n2)cc1NC1CCOCC1F (stereo partly drawn) [Example 266] | 548
CC(C)(O)[C@H](F)CNC(=O)c1cnc(Nc2ccc3ncsc3c2)cc1NCC1CCCC1O (stereo partly drawn) [Example 114] | 491
CC(C)(O)[C@H](F)CNC(=O)c1cnc(Nc2nc3ccnn3cc2F)cc1NC1CCCC1O (stereo partly drawn) [Example 464] | 843
CC(O)([C@H](F)CNC(=O)c1cnc(Nc2ccc3ncsc3c2)cc1NC1CCCC1F)C(F)(F)F (stereo in doubt) [Example 342] | 71
CC(C)(O)[C@H](F)CNC(=O)c1cnc(Nc2nc3ccnn3cc2F)cc1NC1CCCC1F (stereo partly drawn) [Example 463] | 204
CC(C)(O)[C@H](F)CNC(=O)c1cnc(Nc2ccn3nccc3n2)cc1NC1CCC(F)(F)C1 (stereo partly drawn) [Example 258] | 432
CC(C)(O)[C@H](F)CNC(=O)c1cnc(Nc2ccc3ncsc3c2)cc1NCC1CCCC1F (stereo partly drawn) [Example 117] | 363
CC(C)(O)[C@H](F)CNC(=O)c1cnc(Nc2ccn3nccc3n2)cc1NC1CCOCC1F (stereo partly drawn) [Example 249] | 554
CC(C)(O)[C@H](F)CNC(=O)c1cnc(Nc2ccn3nccc3n2)cc1NC1CCOCC1F (stereo partly drawn) [Example 271] | 128
CC(O)([C@H](F)CNC(=O)c1cnc(Nc2ccc3ncsc3c2)cc1NC1CCCC1F)C(F)(F)F (stereo in doubt) [Example 341] | 97
CC(C)(O)[C@H](F)CNC(=O)c1cnc(Nc2nc3ccnn3cc2F)cc1NC1CCCC1F (stereo partly drawn) [Example 471] | 1200
CC(C)(O)[C@H](F)CNC(=O)c1cnc(Nc2ccc3ncsc3c2)cc1NCC1CCCC1F (stereo partly drawn) [Example 118] | 109
Cc1cc2nc(Nc3cc(NC4CCC(F)C4)c(C(=O)NC[C@@H](F)C(C)(C)O)cn3)ccn2n1 (stereo partly drawn) [Example 380] | 468
CC(O)([C@H](F)CNC(=O)c1cnc(Nc2ccc3ncsc3c2)cc1NC1CCCC1F)C(F)(F)F (stereo in doubt) [Example 339] | 460
CC(C)(O)[C@H](F)CNC(=O)c1cnc(Nc2ccc3ncsc3c2)cc1NCC1CCCC1O (stereo partly drawn) [Example 112] | 203
CC(C)(O)[C@H](F)CNC(=O)c1cnc(Nc2ccc3ncccc3n2)cc1NC1CCCOC1 (stereo partly drawn) [Example 431] | 220
CC(C)(O)[C@H](F)CNC(=O)c1cnc(Nc2ccc3ncsc3n2)cc1NC1CCOCC1F (stereo partly drawn) [Example 418] | 30
CC(C)Nc1cc(Nc2ccc3nsnc3c2)ncc1C(=O)NC[C@@H](F)C(O)C(C)C (stereo partly drawn) [Example 22] | 456
CC(C)(O)[C@H](F)CNC(=O)c1cnc(Nc2nc3ccnn3cc2F)cc1NC1CCCC1O (stereo partly drawn) [Example 465] | 388
CC(C)(O)[C@H](F)CNC(=O)c1cnc(Nc2ccn3nccc3n2)cc1NC1CCC(F)(F)C1 (stereo partly drawn) [Example 259] | 132
CC(C)(O)[C@H](F)CNC(=O)c1cnc(Nc2ccn3nccc3n2)cc1NC1CCC(F)(F)C1 (stereo partly drawn) [Example 242] | 179

Reference: US9546153B2, “Bicyclic heterocycle substituted pyridyl compounds useful as kinase modulators” (BRISTOL-MYERS SQUIBB COMPANY, priority 2012, dated 2017)
